Assay results from BindingDB's records for doi:10.1016/s0960-894x(99)00217-6 (Palatin Technologies, 1999).
pKi: −log10 of the molar value.

Target: T1, Neutrophil elastase (Homo sapiens, UniProt P08246)
T1 sequence (P08246 whole entry): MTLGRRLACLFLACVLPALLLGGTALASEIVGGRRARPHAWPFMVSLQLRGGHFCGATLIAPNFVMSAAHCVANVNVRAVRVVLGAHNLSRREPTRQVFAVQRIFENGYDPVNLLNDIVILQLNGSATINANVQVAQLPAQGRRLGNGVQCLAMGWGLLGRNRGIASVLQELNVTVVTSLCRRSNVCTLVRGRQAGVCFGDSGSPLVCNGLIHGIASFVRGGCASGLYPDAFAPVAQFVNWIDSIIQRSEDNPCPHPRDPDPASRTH
Experiment: ChEBML_64294
Source text: Kinetic constant for human neutrophil elastase

pKi	Structure (SMILES)
4.44	CC[C@@H](C)/C(NS(=O)(=O)c1ccc(C)cc1)=C(\O)[N]1[C@@H](CCCCNC(=O)C23CC4CC(CC(C4)C2)C3)C(=O)[N]2[C@H](C(=O)N[C@H](C(=O)O)C(C)C)C[S][Re]21=[O] (stereo partly drawn)
3.71	CC[C@@H](C)/C(NCc1ccccc1)=C(\O)[N]1[C@@H](CCCCNC(=O)C23CC4CC(CC(C4)C2)C3)C(=O)[N]2[C@H](C(=O)N[C@H](C(N)=O)C(C)C)C[S][Re]21=[O] (stereo partly drawn)
3.88	CC[C@@H](C)/C(NS(=O)(=O)c1ccc(C)cc1)=C(\O)[N]1[C@@H](CCCCNC(=O)C23CC4CC(CC(C4)C2)C3)C(=O)[N]2[C@H](C(=O)N[C@H](C(N)=O)C(C)C)C[S][Re]21=[O] (stereo partly drawn)
